Measured values published in patent US20140308733A1, “METHOD FOR INDUCING GERMINATION OF SPORE FORMING BACTERIUM” (CALPIS CO., LTD., priority 2011, published 2014).

Assays:
[1] = test system: Bacillus licheniformis (NBRC 14206); experiment: Germination induction, change of turbidity (630 nm) of spore suspension; type: cell-based; conditions: 300 ppm; for turbidity (630 nm): 37° C., 150 rpm; for germination confirmed by turbidity decrease: up to 180 min
Method: (§1) It is possible to determine whether spores have germinated, after measuring an OD 630 value (turbidity at 630 nm) of the liquid culture, based on decrease in the value (Literature: Microbiology, (1950), 4, 3, 330-338). Briefly, bacterial cells after culturing are washed with distilled water and diluted with distilled water to OD 630=1.0, which is then mixed with an equal volume of a germination induction solution, and the turbidity at 630 nm is measured by a UV spectrophotometer at room temperature.
(§2) TS culture media (Difco, Trypticase Soy Broth) were inoculated respectively with 11 strains listed in Table 1 and cultured at 50° C. with respect to Geobacillus stearothermophilus NBRC13737 and Aeribacillus pallidus TK6004 (FERM BP-08597), and at 37° C. with respect to the other 9 strains, until respective colonies were established. Then with respect to each of 11 strains, a loop full of a single colony was scratched by a platinum loop and suspended in 500 μL of sterilized water. In 1000 g of water was dissolved 8.0 g of a nutrient agar culture medium (Difco, Nutrient Broth), followed by high pressure steam sterilization (121° C., 15 min) to prepare a plate medium. The nutrient agar culture medium was smeared with each 100 μL of the suspension and cultured at 37° C. for 3 days.
(§3) Then, bacterial cells were suspended using a platinum loop in 500 μL of sterilized water, and the bacterial suspension was subjected to a heat shock at 65° C. for 35 min. Each 100 μL of the heat-shocked bacterial suspension and a not-heat-shocked bacterial suspension were smeared on the TS culture media respectively and cultured at 50° C. or 37° C. for 1 day.
(§4) After confirming the spore formation, the bacterial cells were collected by a bacteria spreader, suspended in 10 mL of sterilized distilled water, and then centrifuged (8340×g, 4° C., 15 min). The supernatant was removed and thereafter the bacterial cells were washed twice with 10 mL of sterilized water. After washing, the bacterial cells were suspended in 5 mL of sterilized water, and the suspension was filtrated by sterilized Kimwipes. The filtrate was centrifuged (8340×g, 4° C., 15 min) to remove the supernatant, and the rest was adjusted to the turbidity (at 630 nm) of 1.0 with sterilized water.
(§5) After dissolving with stirring using a stirring rod with a propeller, filtration sterilization (0.45 μm filter) was conducted to prepare each 600 ppm-solution.
(§6) Five hundred (500) μL of each solution and 500 μL of each bacterial spore suspension were mixed. […] Defining the time point of mixing as the reaction initiation (0 min), and continuing shaking (150 rpm) at 37° C., the turbidity (630 nm) was measured at 10, 20, 30, 40, 50, 60, 90, 120, and 180 min after the reaction initiation.
(§7) Since the turbidity at 630 nm decreases by germination of spores, it has been known that the turbidity at 630 nm can be used to determine the germination rate.

[2] = test system: Bacillus licheniformis (NBRC 12200); experiment: as above; type: cell-based; conditions: 300 ppm; for turbidity (630 nm): 37° C., 150 rpm; for germination confirmed by turbidity decrease: up to 180 min
Method: as §1, §2, §3, §4, §5, §6, §7

[3] = 0 min after reaction initiation
[4] = 10 min after reaction initiation
[5] = 20 min after reaction initiation
[6] = 30 min after reaction initiation
[7] = 40 min after reaction initiation
[8] = 50 min after reaction initiation
[9] = 60 min after reaction initiation
[10] = 90 min after reaction initiation
[11] = 120 min after reaction initiation
[12] = 180 min after reaction initiation

Structure (SMILES)	turbidity (630 nm) [1, 3]	turbidity (630 nm) [1, 4]	turbidity (630 nm) [1, 5]	turbidity (630 nm) [1, 6]	turbidity (630 nm) [1, 7]	turbidity (630 nm) [1, 8]	turbidity (630 nm) [1, 9]	turbidity (630 nm) [1, 10]	turbidity (630 nm) [1, 11]	turbidity (630 nm) [1, 12]	germination confirmed by turbidity decrease [1]	turbidity (630 nm) [2, 3]	turbidity (630 nm) [2, 4]	turbidity (630 nm) [2, 5]	turbidity (630 nm) [2, 6]	turbidity (630 nm) [2, 7]	turbidity (630 nm) [2, 8]	turbidity (630 nm) [2, 9]	turbidity (630 nm) [2, 10]	turbidity (630 nm) [2, 11]	further results
COc1cc(/C=C/C(=O)O)ccc1O [Ferulic acid, ferulic acid]	0.589	0.583	0.573	0.565	0.553	0.547	0.530	0.498	0.474	0.463	the turbidity decreased	0.601	0.569	0.563	0.543	0.536	0.517	0.503	0.460	0.417	turbidity (630 nm) [2, 12]: 0.334; germination confirmed by turbidity decrease [2]: the turbidity decreased
COc1cc(C(=O)O)ccc1O [Vanillic acid, vanillic acid]	0.583	0.573	0.563	0.553	0.537	0.526	0.503	0.470	0.453	0.414	the turbidity decreased	0.602	0.574	0.567	0.542	0.523	0.488	0.464	0.414	0.362	turbidity (630 nm) [2, 12]: 0.267; germination confirmed by turbidity decrease [2]: the turbidity decreased
